Target: T1, purified human recombinant GK (Homo sapiens, UniProt P35557)
T1 sequence (P35557 1-465): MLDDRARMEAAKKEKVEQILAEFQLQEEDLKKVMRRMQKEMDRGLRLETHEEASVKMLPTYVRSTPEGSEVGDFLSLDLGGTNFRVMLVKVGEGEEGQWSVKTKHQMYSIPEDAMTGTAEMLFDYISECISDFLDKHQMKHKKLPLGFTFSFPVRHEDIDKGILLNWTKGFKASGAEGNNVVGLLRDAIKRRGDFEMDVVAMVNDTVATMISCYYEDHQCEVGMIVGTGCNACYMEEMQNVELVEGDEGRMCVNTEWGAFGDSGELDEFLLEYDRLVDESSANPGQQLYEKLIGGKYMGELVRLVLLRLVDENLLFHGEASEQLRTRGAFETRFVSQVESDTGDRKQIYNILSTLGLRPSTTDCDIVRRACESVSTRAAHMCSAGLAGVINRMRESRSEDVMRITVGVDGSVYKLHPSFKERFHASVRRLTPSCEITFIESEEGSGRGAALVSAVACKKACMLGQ
Assay: Glucokinase activity assay (coupled enzymatic GK/G6PD assay, NADH absorbance at 340 nm)
Assay type: biochemical
Details: for EC50: EC50 of % change in S0.5 of glucokinase for glucose, sigmoidal fit, read-out: EC50 (with respect to % ΔS0.5); for Emax: Emax of % change in S0.5, vehicle S0.5 = 0%, 0 mM glucose = 100%, read-out: % Emax (with respect to % ΔS0.5)
Excerpt: The glucokinase (GK) assay is a coupled enzymatic assay. GK catalyzes the first step of glycolysis, the conversion of glucose to glucose-6-phosphate (G6P) in the presence of ATP. G6P in turn is converted by glucose-6-phosphate dehydrogenase (G6PD) to 6-phosphogluconate, a process that requires NAD, resulting in NADH formation. Since the GK-catalyzed step is the rate-limiting step of this coupled enzymatic process, the rate of accumulation of 6-phosphogluconate and NADH is directly proportional to the rate of glucose phosphorylation by GK. The rate of the GK-catalyzed reaction can therefore be measured by monitoring the increase in NADH absorbance at 340 nm.
The assay is carried out according to the protocol outlined in Hariharan et al (1997), Diabetes 46: 11-16. Briefly, the test compounds are incubated in a reaction mix containing 25 mM HEPES (pH 7.2), 10 mM MgCl2, 100 mM KCl, 5 mM ATP, 2 mM DTT, 0.5 mM NAD, 1 U/ml Leuconostoc mesenteroides G6PD, 0.3 U/ml of purified human recombinant GK, and different concentrations of glucose. Enzymatic activity is calculated from the initial reaction velocity, measured from the change in NADH absorbance as a function of time.
Compounds described in formula (I), in concentration ranges from 1.0 nM to […] are tested in the purified human recombinant glucokinase assay described above.
A compound is considered to be a glucokinase activator if it, in its testable range of concentrations, yields a higher rate of glucose phosphorylation than in its absence at a particular glucose concentration, for example at 5 mM glucose.
Compounds of general formula (I) are tested in the in vitro GK enzymatic assay to monitor dose-dependent effect on glucokinase activation (in kinetic mode), as described above, at various glucose concentrations. The S0.5 of glucokinase for glucose at different concentration of each compound of interest is calculated from the following modified version of the Michaelis-Menten equation, V=Vmax[S]^n/(S0.5^n+[S]^n), where [S] is the glucose concentration and n is the Hill coefficient (taken as 1.7 to account for the sigmoidal kinetics of glucokinase with respect to glucose). The S0.5 is plotted against the log of the compound concentration. The change in the S0.5 of glucokinase (ΔS0.5) for glucose is calculated by subtracting the S0.5 at each concentration of the compound from the S0.5 in the vehicle control. The ΔS0.5 is then normalized to a percent scale, where the S0.5 in the vehicle control is set to 0% and 0 mM glucose is set to 100%. The % ΔS0.5 is then plotted against the log of the compound concentration. The EC50 and Emax of % change in S0.5 is obtained from the sigmoidal fit of the data. Detailed protocol has been described in our copending application no. WO 2008/104994 which is incorporated herein by reference. Characterization data of some representative glucokinase activators of the present disclosure, which are illustrative but not limiting, are given in table 1 below.

Row | Compound | EC50 [nM] | Emax [%]
1 | O=C(Nc1ncc(F)s1)C(Oc1ccc2[nH]ccc2c1)c1ccc(S(=O)(=O)C2CC2)cc1 (stereo not shown) [Example A28, 2-(4-Cyclopropanesulfonylphenyl)-N-(5-fluorothiazol-2-yl)-2-(1H-indol-5-yloxy)acetamide] | 640 | 90
2 | O=C(O)c1ccc(Oc2cnc(NC(=O)C(Oc3ccc(F)cc3F)c3ccc(S(=O)(=O)N4CCCCC4)cc3)s2)cc1 (stereo not shown) [Example B50, 4-(2-{2-(2,4-Difluoro-phenoxy)-2-[4-(piperidine-1-sulfonyl)-phenyl]-acetylamino}-thiazol-5-yloxy)-benzoic acid] | 280 | 90
3 | Cn1ccc(NC(=O)C(Oc2ccc(Cl)cc2F)c2ccc(S(=O)(=O)C3CC3)cc2)n1 (stereo not shown) [Example A46, 2-(4-Chloro-2-fluorophenoxy)-2-(4-cyclopropanesulfonylphenyl)-N-(1-methyl-1H-pyrazol-3-yl)acetamide] | 1370 | 90
4 | CC(C)Oc1ccc2nc(NC(=O)C(OC3CCOCC3)c3ccc(S(=O)(=O)C4CC4)cc3)sc2n1 (stereo not shown) [Example A82, 2-(4-Cyclopropanesulfonyl-phenyl)-N-(5-isopropoxy-thiazolo[5,4-b]pyridin-2-yl)-2-(tetrahydro-pyran-4-yloxy)-acetamide] | 240 | 94
5 | O=C(O)Cc1nc(NC(=O)C(Oc2ccc(F)cc2F)c2ccc(S(=O)(=O)C3CCCCC3)cc2)sc1Cl (stereo not shown) [Example B15, {5-Chloro-2-[2-(4-cyclohexanesulfonylphenyl)-2-(2,4-difluorophenoxy)acetylamino]-thiazol-4-yl}acetic acid] | 670 | 95
6 | O=C(Nc1cc[nH]n1)C(Oc1ccc(Cl)cc1F)c1ccc(S(=O)(=O)C2CC2)cc1 (stereo not shown) [Example A45, 2-(4-Chloro-2-fluorophenoxy)-2-(4-cyclopropanesulfonylphenyl)-N-(1H-pyrazol-3-yl)acetamide] | 1300 | 90
7 | O=C(O)c1ccc(Oc2cnc(NC(=O)C(O[C@@H]3CCOC3)c3ccc(S(=O)(=O)C4CC4)cc3)s2)cc1 (single isomer, unassigned) [Example H9A] | 22 | –
8 | O=C(Nc1nccs1)C(Oc1ccc(Cl)cc1)c1ccc(S(=O)(=O)C2CCCC2)cc1 (stereo not shown) [Example A12, 2-(4-Chlorophenoxy)-2-(4-cyclopentanesulfonylphenyl)-N-thiazol-2-yl-acetamide] | 170 | 90
9 | O=C(Nc1ccc(Cl)cn1)C(Oc1ccc(Cl)cc1F)c1ccc(S(=O)(=O)C2CC2)cc1 (stereo not shown) [Example A41, 2-(4-Chloro-2-fluorophenoxy)-N-(5-chloropyridin-2-yl)-2-(4-cyclopropanesulfonylphenyl)-acetamide] | 460 | 90
10 | O=C(O)Cc1nc(NC(=O)C(Oc2ccc(F)cc2F)c2ccc(S(=O)(=O)N3CCCCC3)cc2)sc1Cl (single isomer, unassigned; (-)) [Example H3A, (−) (5-Chloro-2-{2-(2,4-difluoro-phenoxy)-2-[4-(piperidine-1-sulfonyl)-phenyl]-acetylamino}-thiazol-4-yl)-acetic acid] | 430 | 90
11 | O=C(Nc1ncc(F)s1)C(Oc1ccc(F)cc1F)c1ccc(S(=O)(=O)C2CCCC2)c(Cl)c1 (stereo not shown) [Example A36, 2-(3-Chloro-4-cyclopentanesulfonylphenyl)-2-(2,4-difluorophenoxy)-N-(5-fluoro-thiazol-2-yl)acetamide] | 110 | 95
12 | O=C(O)c1csc(NC(=O)C(Oc2ccc(Cl)cc2F)c2ccc(S(=O)(=O)C3CC3)cc2)n1 (stereo not shown) [Example B26, 2-[2-(4-Chloro-2-fluorophenoxy)-2-(4-cyclopropanesulfonylphenyl)acetylamino]thiazole-4-carboxylic acid] | > 10000 | –
13 | CC(=O)Nc1cccc(OC(C(=O)Nc2ncc(F)s2)c2ccc(S(=O)(=O)C3CC3)cc2)c1 (stereo not shown) [Example A29, 2-(3-Acetylaminophenoxy)-2-(4-cyclopropanesulfonylphenyl)-N-(5-fluoro-thiazol-2-yl)acetamide] | 590 | 90

The next lines start with the values.

Row | EC50 [nM] | Emax [%] | Compound
14 | > 10000 | – | CCOc1sc(NC(=O)C(Oc2ccc(F)cc2F)c2ccc(S(=O)(=O)C3CC3)cc2)nc1CC(=O)O (stereo not shown) [Example B22, {2-[2-(4-Cyclopropanesulfonylphenyl)-2-(2,4-difluorophenoxy)acetylamino]-5-ethoxy-thiazol-4-yl}acetic acid]
15 | 390 | 95 | Cn1ccc(NC(=O)C(Oc2ccc(F)cc2F)c2ccc(S(=O)(=O)C3CCCC3)cc2)n1 (stereo not shown) [Example A38, 2-(4-Cyclopentanesulfonylphenyl)-2-(2,4-difluorophenoxy)-N-(1-methyl-1H-pyrazol-3-yl)acetamide]
16 | 150 | 92 | O=C(Nc1ncc(F)s1)C(OC1CCOCC1)c1ccc(S(=O)(=O)C2CC2)cc1 (stereo not shown) [Example A114, 2-(4-Cyclopropanesulfonyl-phenyl)-N-(5-fluoro-thiazol-2-yl)-2-(tetrahydro-pyran-4-yloxy)-acetamide]
17 | 7100 | 90 | O=C(Nc1nncs1)C(Oc1ccc(F)cc1F)c1ccc(S(=O)(=O)C2CC2)cc1 (stereo not shown) [Example A16, 2-(4-Cyclopropanesulfonylphenyl)-2-(2,4-difluorophenoxy)-N-[1,3,4]thiadiazol-2-yl-acetamide]
18 | 2000 | 90 | O=C(Nc1cc[nH]n1)C(Oc1ccc(F)cc1F)c1ccc(S(=O)(=O)C2CCCC2)c(Cl)c1 (stereo not shown) [Example A37, 2-(3-Chloro-4-cyclopentanesulfonylphenyl)-2-(2,4-difluorophenoxy)-N-(1H-pyrazol-3-yl)acetamide]
19 | 110 | 95 | O=C(Nc1ncc(F)s1)C(Oc1ccc(F)cc1F)c1ccc(S(=O)(=O)C2CCCC2)cc1 (stereo not shown) [Example A11, 2-(4-Cyclopentanesulfonylphenyl)-2-(2,4-difluorophenoxy)-N-(5-fluoro-thiazol-2-yl)acetamide]
20 | 120 | 95 | O=C(Nc1ncc(F)s1)C(Oc1ccc(Cl)cc1F)c1ccc(S(=O)(=O)C2CC2)cc1 (stereo not shown) [Example A42, 2-(4-Chloro-2-fluorophenoxy)-2-(4-cyclopropanesulfonylphenyl)-N-(5-fluorothiazol-2-yl)acetamide]
21 | 110 | 93 | O=C(Nc1ncc(Oc2ccc(C(=O)N3CCC3)cc2)s1)C(Oc1ccc(F)cc1F)c1ccc(S(=O)(=O)C2CC2)cc1 (single isomer, unassigned; (+)) [Example H6A, (+)N-{5-[4-(Azetidine-1-carbonyl)-phenoxy]-thiazol-2-yl}-2-(4-cyclopropanesulfonyl-phenyl)-2-(2,4-difluoro-phenoxy)-acetamide]
22 | 200 | 90 | NC(=O)c1cccc(Oc2cnc(NC(=O)C(Oc3ccc(F)cc3F)c3ccc(S(=O)(=O)C4CC4)cc3)s2)c1 (stereo not shown) [Example G3, 3-{2-[2-(4-Cyclopropanesulfonyl-phenyl)-2-(2,4-difluoro-phenoxy)-acetylamino]-thiazol-5-yloxy}-benzamide]
23 | 130 | 95 | O=C(Nc1ncc(Cl)s1)C(Oc1ccc(F)cc1F)c1ccc(S(=O)(=O)C2CC2)cc1 (stereo not shown) [Example A2, N-(5-Chlorothiazol-2-yl)-2-(4-cyclopropanesulfonylphenyl)-2-(2,4-difluorophenoxy)acetamide]

— patent US8501955B2, “Acetamide derivatives as glucokinase activators, their process and medicinal application” (Advinus Therapeutics Private Limited, priority 2007, dated 2013)
